Data as given in patent publication US8084399B2, “Process for screening of a binding amphiphilic peptides specific for hairpin RNA” (priority 2009, dated 2011).
Where no end group is shown, it is not given here. [ ]: non-standard residue; d: D form. Orn = NCCC[C@H](N)C(=O)O; Dab = NCC[C@H](N)C(=O)O; Dap = NC[C@H](N)C(=O)O

Legend:
RRE hairpin RNA = assay: Fluorescence anisotropy competition with Rev-N-rhodamine probe, binding to RRE hairpin RNA; design: species or system HIV; settings: 20° C., pH 7.4, read-out: Dissociation constant, RRE
Experimental: (§1) Binding force to each target hairpin RNA (IRES, RRE, TAR and 16S A-site) was measured by fluorescence polarization using alanine scanned peptide library (1b-1h).
(§2) Particularly, […] of each target RNA was prepared at the concentration of 10 mM, which stood at 65° C. for 10 minutes and then cooled down slowly at room temperature, leading to folding. The amphiphilic peptide was prepared respectively at the concentration of […], which were maintained at 0° C. As a probe, rev peptide labeled with rhodamine (Rev-N-rhodamine) emitting […] fluorescence was prepared at the concentration of 10 mM. Buffer was composed of 140 mM NaCl, 5 mM KCl, 1 mM MgCl2, and 20 mM HEPES (N-2-Hydroxyethylpiperazine-N′-2-Ethanesulfonic Acid, pH 7.4). Fluorescence Anisotropy was measured using AMINCO-Bowman Series Luminescence Spectrometer at 20° C. Ten nM of the probe was added in […] of buffer, to which target RNA was added to induce interaction between the probe and the target RNA. At that time, anisotropy value increased. Then, the synthesized peptide competing with the probe for binding site was added thereto with increasing the concentration slowly. Changes of fluorescence polarization were measured until fluorescence polarization reached as low as the beginning. Considering the concentration and amount of the peptide added, binding force to target RNA was calculated. That is, the binding strength between target RNA and peptide was determined according to the following KaleidaGraph. [Peptide]=Kd(Amax−A)/[Kd(A−A0)+1]×[RNA]−Kd(A−A0)^2[Probe]0/(Amax−A)(Amax−A0)
(§3) Herein, [Peptide] indicates the concentration of peptide, [RNA] indicates the concentration of target RNA, and [Probe]0 indicates the concentration of probe. A is the value of fluorescence anisotropy of sample, Amax is the value of totally bound tracer, and A0 is the value of totally free tracer.

TAR hairpin RNA = assay: Fluorescence anisotropy competition with Rev-N-rhodamine probe, binding to TAR hairpin RNA; design: species or system HIV; settings: for Kd: fluorescence anisotropy, 20° C., pH 7.4, read-out: Dissociation constant, TAR
Experimental: as §1, §2, §3

16S ribosomal RNA A-site = assay: Fluorescence anisotropy competition with Rev-N-rhodamine probe, binding to 16S A-site; settings: 20° C., pH 7.4, read-out: Dissociation constant, 16S A-site
Experimental: as §1, §2, §3

IRES domain IV hairpin = assay: Fluorescence anisotropy competition with Rev-N-rhodamine probe, binding to IRES hairpin; design: species or system HCV; settings: for differentiation coefficient (IRES): (mean Kd to other hairpin RNA)/(Kd to one hairpin RNA); for Kd: fluorescence anisotropy, 20° C., pH 7.4, read-out: Dissociation constant, IRES
Experimental: as §1, §2, §3

[1] = Circular dichroism (CD), percentage of alpha-helix; type: physicochemical; settings: CD at 20° C., condition not given; for Alpha-helical rate (%), second value of pair: value after the slash; for Alpha-helical rate (%), first value of pair: value before the slash
Experimental: To investigate alpha-helix of the amphiphilic peptide (1a-1h), circular dichroism (CD) was performed. Particularly, CD was measured at 20° C. by using JASCO model J715 spectropolarimeter. Scanning was performed at 190-250 nm three times (bandwidth: 1 nm, datapitch: 0.5 nm, speed: 100 nm/min), which were averaged to obtain CD data. Spectrum was corrected by measuring background spectrum. CD signal was recorded after modulating thereof with mean residue ellipticity [Q]. Percentage (%) of alpha-helix(fn) was calculated by the following formula. [Q]=Qobs[MRW/(10lc)]
MRW=mean residue weight (dividing molecular weight by the number of peptide bond, l=pathway length (cm), c=concentration (mg/mL). fn=([Q]222−[Q]coil)/([Q]helix−[Q]coil) [Q]helix=−40,000[…]+100t [Q]coil=640−45t
[Q]222=mean residue ellipticity at 222 nm (deg cm2 mol-1), [Q]helix=ellipticity of peptide having complete helical structure, [Q]coil=ellipticity of peptide having complete random coil structure, n=number of amino acid, t=° C.

[2] = compared with the original peptide

LKKLLOrnLLKKLLKLAG (LKKLL[Orn]LLKKLLKLAG-NH2; N-terminus assumed; SMILES CC(C)C[C@H](NC(=O)[C@H](CCCCN)NC(=O)[C@H](CC(C)C)NC(=O)[C@H](CC(C)C)NC(=O)[C@H](CCCCN)NC(=O)[C@H](CCCCN)NC(=O)[C@H](CC(C)C)NC(=O)[C@H](CC(C)C)NC(=O)[C@H](CCCN)NC(=O)[C@H](CC(C)C)NC(=O)[C@H](CC(C)C)NC(=O)[C@H](CCCCN)NC(=O)[C@H](CCCCN)NC(=O)[C@@H](N)CC(C)C)C(=O)N[C@@H](C)C(=O)NCC(N)=O) [2a, second generation peptide, hydrophilic face modified]
Kd (RRE hairpin RNA): 17 nM | Kd (TAR hairpin RNA): 14 nM | Kd (16S ribosomal RNA A-site): 15 nM | differentiation coefficient (IRES) (IRES domain IV hairpin): 2.5 | Kd (IRES domain IV hairpin): 6.1 nM | Alpha-helical rate (%), second value of pair [1]: 82% | Alpha-helical rate (%), first value of pair [1]: 13%

LKKLLKLLKKLLOrnLAG (LKKLLKLLKKLL[Orn]LAG-NH2; N-terminus assumed; SMILES CC(C)C[C@H](NC(=O)[C@H](CCCN)NC(=O)[C@H](CC(C)C)NC(=O)[C@H](CC(C)C)NC(=O)[C@H](CCCCN)NC(=O)[C@H](CCCCN)NC(=O)[C@H](CC(C)C)NC(=O)[C@H](CC(C)C)NC(=O)[C@H](CCCCN)NC(=O)[C@H](CC(C)C)NC(=O)[C@H](CC(C)C)NC(=O)[C@H](CCCCN)NC(=O)[C@H](CCCCN)NC(=O)[C@@H](N)CC(C)C)C(=O)N[C@@H](C)C(=O)NCC(N)=O) [2g, second generation peptide, hydrophilic face modified]
Kd (RRE hairpin RNA): 11 nM | Kd (TAR hairpin RNA): 9 nM | Kd (16S ribosomal RNA A-site): 23 nM | differentiation coefficient (IRES) (IRES domain IV hairpin): 3.3 | Kd (IRES domain IV hairpin): 4.4 nM | Alpha-helical rate (%), second value of pair [1]: 53% | Alpha-helical rate (%), first value of pair [1]: 36%

LKKWLKLLKKLLKLAG [2o, tryptophan scanned second generation peptide]
Kd (RRE hairpin RNA): 5.9 nM | Kd (TAR hairpin RNA): 34 nM | Kd (16S ribosomal RNA A-site): 15 nM | differentiation coefficient (IRES) (IRES domain IV hairpin): 5.6 | Kd (IRES domain IV hairpin): 3.3 nM | Alpha-helical rate (%), second value of pair [1]: 52% | Alpha-helical rate (%), first value of pair [1]: 4.6%

LKKLLDabLLKKLLKWAG (LKKLL[Dab]LLKKLLKWAG-NH2; N-terminus assumed; SMILES CC(C)C[C@H](NC(=O)[C@H](CC(C)C)NC(=O)[C@H](CCCCN)NC(=O)[C@H](CCCCN)NC(=O)[C@H](CC(C)C)NC(=O)[C@H](CC(C)C)NC(=O)[C@H](CCN)NC(=O)[C@H](CC(C)C)NC(=O)[C@H](CC(C)C)NC(=O)[C@H](CCCCN)NC(=O)[C@H](CCCCN)NC(=O)[C@@H](N)CC(C)C)C(=O)N[C@@H](CCCCN)C(=O)N[C@@H](Cc1c[nH]c2ccccc12)C(=O)N[C@@H](C)C(=O)NCC(N)=O) [3e, third generation peptide, both faces modified]
Kd (RRE hairpin RNA): 22 nM | Kd (TAR hairpin RNA): 14 nM | Kd (16S ribosomal RNA A-site): 16 nM | differentiation coefficient (IRES) (IRES domain IV hairpin): 28 | Kd (IRES domain IV hairpin): 0.62 nM | Alpha-helical rate (%), second value of pair [1]: 45% | Alpha-helical rate (%), first value of pair [1]: 39%

LKKLLDabLLKKLLDapLAG (LKKLL[Dab]LLKKLL[Dap]LAG-NH2; N-terminus assumed; SMILES CC(C)C[C@H](NC(=O)[C@H](CN)NC(=O)[C@H](CC(C)C)NC(=O)[C@H](CC(C)C)NC(=O)[C@H](CCCCN)NC(=O)[C@H](CCCCN)NC(=O)[C@H](CC(C)C)NC(=O)[C@H](CC(C)C)NC(=O)[C@H](CCN)NC(=O)[C@H](CC(C)C)NC(=O)[C@H](CC(C)C)NC(=O)[C@H](CCCCN)NC(=O)[C@H](CCCCN)NC(=O)[C@@H](N)CC(C)C)C(=O)N[C@@H](C)C(=O)NCC(N)=O) [2l, second generation peptide, hydrophilic face modified]
Kd (RRE hairpin RNA): 14 nM | Kd (TAR hairpin RNA): 16 nM | Kd (16S ribosomal RNA A-site): 14 nM | differentiation coefficient (IRES) (IRES domain IV hairpin): 13 | Kd (IRES domain IV hairpin): 1.1 nM | Alpha-helical rate (%), second value of pair [1]: 50% | Alpha-helical rate (%), first value of pair [1]: 40%

LKKLLDabLLOrnKLLKLAG (LKKLL[Dab]LL[Orn]KLLKLAG-NH2; N-terminus assumed; SMILES CC(C)C[C@H](NC(=O)[C@H](CCCCN)NC(=O)[C@H](CC(C)C)NC(=O)[C@H](CC(C)C)NC(=O)[C@H](CCCCN)NC(=O)[C@H](CCCN)NC(=O)[C@H](CC(C)C)NC(=O)[C@H](CC(C)C)NC(=O)[C@H](CCN)NC(=O)[C@H](CC(C)C)NC(=O)[C@H](CC(C)C)NC(=O)[C@H](CCCCN)NC(=O)[C@H](CCCCN)NC(=O)[C@@H](N)CC(C)C)C(=O)N[C@@H](C)C(=O)NCC(N)=O) [2j, second generation peptide, hydrophilic face modified]
Kd (RRE hairpin RNA): 21 nM | Kd (TAR hairpin RNA): 10 nM | Kd (16S ribosomal RNA A-site): 14 nM | differentiation coefficient (IRES) (IRES domain IV hairpin): 6.3 | Kd (IRES domain IV hairpin): 2.4 nM | Alpha-helical rate (%), second value of pair [1]: 57% | Alpha-helical rate (%), first value of pair [1]: 49%

LKKLLALLKKLLKLKG [peptide 1d, alanine scanned first generation peptide]
Kd (RRE hairpin RNA): 150 nM | binding strength to TAR, in words (TAR hairpin RNA; [2]): three fold binding strength | Kd (TAR hairpin RNA): 150 nM | Kd (16S ribosomal RNA A-site): 160 nM | differentiation coefficient (IRES) (IRES domain IV hairpin): 1.0 | binding strength to IRES, in words (IRES domain IV hairpin; [2]): reduced binding strength | Kd (IRES domain IV hairpin): 150 nM | Alpha-helical rate (%), second value of pair [1]: 47% | Alpha-helical rate (%), first value of pair [1]: 12%

LKKLLDabLLKKLLKLAG (LKKLL[Dab]LLKKLLKLAG-NH2; N-terminus assumed; SMILES CC(C)C[C@H](NC(=O)[C@H](CCCCN)NC(=O)[C@H](CC(C)C)NC(=O)[C@H](CC(C)C)NC(=O)[C@H](CCCCN)NC(=O)[C@H](CCCCN)NC(=O)[C@H](CC(C)C)NC(=O)[C@H](CC(C)C)NC(=O)[C@H](CCN)NC(=O)[C@H](CC(C)C)NC(=O)[C@H](CC(C)C)NC(=O)[C@H](CCCCN)NC(=O)[C@H](CCCCN)NC(=O)[C@@H](N)CC(C)C)C(=O)N[C@@H](C)C(=O)NCC(N)=O) [2b, second generation peptide, hydrophilic face modified]
Kd (RRE hairpin RNA): 10 nM | Kd (TAR hairpin RNA): 7.3 nM | Kd (16S ribosomal RNA A-site): 13 nM | differentiation coefficient (IRES) (IRES domain IV hairpin): 6.4 | Kd (IRES domain IV hairpin): 1.6 nM | Alpha-helical rate (%), second value of pair [1]: 63% | Alpha-helical rate (%), first value of pair [1]: 23%

LKKLLKLLKKWLKLAG [2s, tryptophan scanned second generation peptide]
Kd (RRE hairpin RNA): 9.5 nM | Kd (TAR hairpin RNA): 43 nM | Kd (16S ribosomal RNA A-site): 24 nM | differentiation coefficient (IRES) (IRES domain IV hairpin): 5.8 | Kd (IRES domain IV hairpin): 4.4 nM | Alpha-helical rate (%), second value of pair [1]: 60% | Alpha-helical rate (%), first value of pair [1]: 27%

LKKLLKLLDapKLLKLAG (LKKLLKLL[Dap]KLLKLAG-NH2; N-terminus assumed; SMILES CC(C)C[C@H](NC(=O)[C@H](CCCCN)NC(=O)[C@H](CC(C)C)NC(=O)[C@H](CC(C)C)NC(=O)[C@H](CCCCN)NC(=O)[C@H](CN)NC(=O)[C@H](CC(C)C)NC(=O)[C@H](CC(C)C)NC(=O)[C@H](CCCCN)NC(=O)[C@H](CC(C)C)NC(=O)[C@H](CC(C)C)NC(=O)[C@H](CCCCN)NC(=O)[C@H](CCCCN)NC(=O)[C@@H](N)CC(C)C)C(=O)N[C@@H](C)C(=O)NCC(N)=O) [2f, second generation peptide, hydrophilic face modified]
Kd (RRE hairpin RNA): 10 nM | Kd (TAR hairpin RNA): 11 nM | Kd (16S ribosomal RNA A-site): 15 nM | differentiation coefficient (IRES) (IRES domain IV hairpin): 0.6 | Kd (IRES domain IV hairpin): 20 nM | Alpha-helical rate (%), second value of pair [1]: 57% | Alpha-helical rate (%), first value of pair [1]: 25%
